Measurements as given in patent US20240116985A1, “STAPLED PEPTIDES AND METHODS THEREOF” (priority 2020, published 2024).
Values after ≈ are worked out from the molar mass of the structure shown. Read-outs that look alike come from different tables or passages of the source.

Assays:
[1] = CHI Log D procedure; type: physicochemical; conditions: for CHI Log D: pH 7.4; for chromatographic logD: pH 7.4, CHI Log D
[2] = Solubility in PBS; type: physicochemical
Method in brief: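 Read-out is the HPLC peak area of the supernatant from ultracentrifuged PBS solution, scaled against a 50 μM peptide DMSO injection; value reported as [(PBS area)/(DMSO area)]*50 uM.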

| Structure (SMILES) | CHI Log D [1] | Solubility [2] [µM] | chromatographic logD [1] | Solubility ([2]; Solubility (uM)) [µM] |
| --- | --- | --- | --- | --- |
| CC(=O)N[C@@H](Cc1ccccc1)C(=O)N[C@@H](CC(=O)O)C(=O)N[C@@H](C)C(=O)N[C@]1(C)CCCCCCC=CCOC(=O)N2CC[C@@](C(=O)N[C@@H](Cc3ccccc3)C(=O)N[C@@H](Cc3c[nH]c4ccccc34)C(=O)N[C@@H](CCC(N)=O)C(N)=O)(C2)NC(=O)[C@H](C(C)C)NC(=O)[C@H](Cc2ccccc2)NC(=O)[C@H](C)NC(=O)[C@H](C)NC(=O)[C@H](Cc2ccc3ccccc3c2)NC(=O)[C@H](CC(=O)O)NC1=O [I-116, Ac-Phe-Asp-Ala-R8-Asp-2NapA-Ala-Ala-Phe-Val-PyrS-Phe-Trp-Gln-NH2] | 2.134 | 11 (≈ 20.9 µg/mL) | – | – |
| CC(=O)N1CCC[C@]12CC=CCCCC1(CCCC=CCCCCCC[C@@](C)(C(=O)N[C@@H](Cc3ccccc3)C(=O)N[C@@H](Cc3c[nH]c4ccccc34)C(=O)N[C@@H](CCC(N)=O)C(N)=O)NC(=O)[C@H](C(C)C)NC(=O)[C@H](Cc3ccccc3)NC(=O)[C@H](C)NC(=O)[C@H](C)NC(=O)[C@H](Cc3cccc(F)c3)NC(=O)[C@H](CC(=O)O)NC1=O)NC(=O)[C@H](C)NC(=O)[C@H](CC(=O)O)NC2=O (stereo partly drawn) [I-257, Ac-PL3-Asp-Ala-B5-Asp-3FF-Ala-Ala-Phe-Val-S8-Phe-Trp-Gln-NH2] | – | 10 (≈ 18.3 µg/mL) | 2.91 | – |
| CC(=O)N1CCC[C@]12CC=CCCCC1(CCCC=CCCCCCC[C@@](C)(C(=O)N[C@@H](Cc3cccc4ccccc34)C(=O)N[C@@H](Cc3c[nH]c4ccccc34)C(=O)N[C@@H](CCC(N)=O)C(N)=O)NC(=O)[C@H](C(C)C)NC(=O)[C@H](Cc3ccccc3)NC(=O)[C@H](C)NC(=O)[C@H](C)NC(=O)[C@H](CC(=O)O)NC(=O)[C@H](CC(=O)O)NC1=O)NC(=O)[C@H](C)NC(=O)[C@H](CC(=O)O)NC2=O (stereo partly drawn) [I-275, Ac-PL3-Asp-Ala-B5-Asp-Asp-Ala-Ala-Phe-Val-S8-1NapA-Trp-Gln-NH2] | 2.191 | 44 (≈ 80.6 µg/mL) | – | – |
| CC(=O)N1CCC[C@]12CC=CCCCC1(CCCC=CCCCCCC[C@@](C)(C(=O)N[C@@H](CC(N)=O)C(=O)N[C@@H](Cc3c[nH]c4ccccc34)C(=O)N[C@@H](CCC(N)=O)C(N)=O)NC(=O)[C@H](C(C)C)NC(=O)[C@H](Cc3ccccc3)NC(=O)[C@H](C)NC(=O)[C@H](C)NC(=O)[C@H](CC(=O)O)NC(=O)[C@H](CC(=O)O)NC1=O)NC(=O)[C@H](C)NC(=O)[C@H](CC(=O)O)NC2=O (stereo partly drawn) [I-284, Ac-PL3-Asp-Ala-B5-Asp-Asp-Ala-Ala-Phe-Val-S8-Asn-Trp-Gln-NH2] | – | – | 1.52 | 40 (≈ 69.9 µg/mL) |
| CC(=O)N1CCC[C@]12CC=CCCCC1(CCCC=CCCCCCC[C@@](C)(C(=O)N[C@@H](Cc3ccccc3)C(=O)N[C@@H](Cc3c[nH]c4ccccc34)C(=O)N[C@@H](CCC(N)=O)C(N)=O)NC(=O)[C@H](C(C)C)NC(=O)[C@H](Cc3cn(C)cn3)NC(=O)[C@H](C)NC(=O)[C@H](C)NC(=O)[C@H](CC(=O)O)NC(=O)[C@H](CC(=O)O)NC1=O)NC(=O)[C@H](C)NC(=O)[C@H](CC(=O)O)NC2=O (stereo partly drawn) [I-329, Ac-PL3-Asp-Ala-B5-Asp-Asp-Ala-Ala-1meH-Val-S8-Phe-Trp-Gln-NH2] | 2.01 | 41 (≈ 73.2 µg/mL) | – | – |
| CC(=O)N1CCC[C@]12CC=CCCCC1(CCCC=CCCCCCC[C@@](C)(C(=O)N[C@@H](Cc3ccccc3)C(=O)N[C@@H](Cc3c[nH]c4ccccc34)C(=O)N[C@@H](CCC(N)=O)C(N)=O)NC(=O)[C@H](C(C)C)NC(=O)[C@H](Cc3cn(C)cn3)NC(=O)[C@H](C)NC(=O)[C@H](C)NC(=O)[C@H](CC(=O)O)NC(=O)[C@H](CC(=O)O)NC1=O)NC(=O)[C@H](C)NC(=O)[C@H](CC(=O)O)NC2=O (stereo partly drawn) [I-330, Ac-PL3-Asp-Ala-B5-Asp-Asp-Ala-Ala-1meH-Val-S8-Phe-Trp-Gln-NH2] | 2.047 | 21 (≈ 37.5 µg/mL) | – | – |
| CC(=O)N1CCC[C@]12CC=CCCCC1(CCCC=CCCCCCC[C@@](C)(C(=O)N[C@@H](Cc3ccc(C(N)=O)cc3)C(=O)N[C@@H](Cc3csc4ccccc34)C(=O)N[C@@H](CCC(N)=O)C(N)=O)NC(=O)[C@H](C(C)C)NC(=O)[C@H](Cc3ccccc3)NC(=O)[C@H](C)NC(=O)[C@H](C)NC(=O)[C@H](CC(=O)O)NC(=O)[C@H](CC(=O)O)NC1=O)NC(=O)[C@H](C)NC(=O)[C@H](CC(=O)O)NC2=O (stereo partly drawn) [I-337, Ac-PL3-Asp-Ala-B5-Asp-Asp-Ala-Ala-Phe-Val-S8-4CBMF-BztA-Gln-NH2] | 1.579 | 48 (≈ 88.4 µg/mL) | – | – |
| CC(=O)N1CCC[C@]12CC=CCCCC1(CCCC=CCCCCCC[C@@](C)(C(=O)N[C@@H](Cc3ccc(C(N)=O)cc3)C(=O)N[C@@H](Cc3csc4ccccc34)C(=O)N[C@@H](CCC(N)=O)C(N)=O)NC(=O)[C@H](C(C)C)NC(=O)[C@H](Cc3ccccc3)NC(=O)[C@H](C)NC(=O)[C@H](C)NC(=O)[C@H](CC(=O)O)NC(=O)[C@H](CC(=O)O)NC1=O)NC(=O)[C@H](C)NC(=O)[C@H](CC(=O)O)NC2=O (stereo partly drawn) [I-338, Ac-PL3-Asp-Ala-B5-Asp-Asp-Ala-Ala-Phe-Val-S8-4CBMF-BztA-Gln-NH2] | 1.586 | 47 (≈ 86.5 µg/mL) | – | – |
| CC(=O)N1CCC[C@]12CC=CCCCC1(CCCC=CCCCCCC[C@@](C)(C(=O)N[C@@H](Cc3ccc(C(=O)O)cc3)C(=O)N[C@@H](Cc3csc4ccccc34)C(=O)N[C@@H](CCC(N)=O)C(N)=O)NC(=O)[C@H](C(C)C)NC(=O)[C@H](Cc3ccccc3)NC(=O)[C@H](C)NC(=O)[C@H](C)NC(=O)[C@H](CC(=O)O)NC(=O)[C@H](CC(=O)O)NC1=O)NC(=O)[C@H](C)NC(=O)[C@H](CC(=O)O)NC2=O (stereo partly drawn) [I-339, Ac-PL3-Asp-Ala-B5-Asp-Asp-Ala-Ala-Phe-Val-S8-4COOHF-BztA-Gln-NH2] | 1.328 | 50 (≈ 92.1 µg/mL) | – | – |
| CC(=O)N1CCC[C@]12CC=CCCCC1(CCCC=CCCCCCC[C@@](C)(C(=O)N[C@@H](Cc3ccc(C(=O)O)cc3)C(=O)N[C@@H](Cc3csc4ccccc34)C(=O)N[C@@H](CCC(N)=O)C(N)=O)NC(=O)[C@H](C(C)C)NC(=O)[C@H](Cc3ccccc3)NC(=O)[C@H](C)NC(=O)[C@H](C)NC(=O)[C@H](CC(=O)O)NC(=O)[C@H](CC(=O)O)NC1=O)NC(=O)[C@H](C)NC(=O)[C@H](CC(=O)O)NC2=O (stereo partly drawn) [I-340, Ac-PL3-Asp-Ala-B5-Asp-Asp-Ala-Ala-Phe-Val-S8-4COOHF-BztA-Gln-NH2] | 1.341 | 49 (≈ 90.3 µg/mL) | – | – |
| CC(=O)N1CCC[C@]12CC=CCCCC1(CCCC=CCCCCCC[C@@](C)(C(=O)N[C@@H](Cc3ccccc3)C(=O)N[C@@H](Cc3c[nH]c4ccccc34)C(=O)N[C@@H](CCC(N)=O)C(N)=O)NC(=O)[C@H](C(C)C)NC(=O)[C@H](Cc3ccccc3)NC(=O)[C@H](C)NC(=O)[C@H](C)NC(=O)[C@H](CC(=O)O)NC(=O)[C@H](CC(=O)O)NC1=O)NC(=O)[C@H](C)NC(=O)[C@H](C)NC2=O (stereo partly drawn) [I-348, Ac-PL3-Ala-Ala-B5-Asp-Asp-Ala-Ala-Phe-Val-S8-Phe-Trp-Gln-NH2] | 2.397 | 46 (≈ 79.9 µg/mL) | – | – |
| CC(=O)N1CCC[C@]12CC=CCCCC1(CCCC=CCCCCCC[C@@](C)(C(=O)N[C@@H](Cc3ccccc3)C(=O)N[C@@H](Cc3c[nH]c4ccccc34)C(=O)N[C@@H](CCC(N)=O)C(N)=O)NC(=O)[C@H](C(C)C)NC(=O)[C@H](Cc3ccccc3)NC(=O)[C@H](C)NC(=O)[C@H](C)NC(=O)[C@H](CC(=O)O)NC(=O)[C@H](CC(=O)O)NC1=O)NC(=O)[C@H](C)NC(=O)[C@H](C)NC2=O (stereo partly drawn) [I-349, Ac-PL3-Ala-Ala-B5-Asp-Asp-Ala-Ala-Phe-Val-S8-Phe-Trp-Gln-NH2] | 2.415 | 49 (≈ 85.1 µg/mL) | – | – |
| CC(=O)N1CCC[C@]12CC=CCCCC1(CCCC=CCCCCCC[C@@](C)(C(=O)N[C@@H](Cc3ccccc3)C(=O)N[C@@H](Cc3c[nH]c4ccccc34)C(=O)N[C@@H](CCC(N)=O)C(N)=O)NC(=O)[C@H](C(C)C)NC(=O)[C@H](Cc3ccccc3)NC(=O)[C@H](C)NC(=O)[C@H](C)NC(=O)[C@H](CC(=O)O)NC(=O)[C@H](C)NC1=O)NC(=O)[C@H](C)NC(=O)[C@H](CC(=O)O)NC2=O (stereo partly drawn) [I-350, Ac-PL3-Asp-Ala-B5-Ala-Asp-Ala-Ala-Phe-Val-S8-Phe-Trp-Gln-NH2] | 2.887 | 48 (≈ 83.4 µg/mL) | – | – |
| CC(=O)N1CCC[C@]12CC=CCCCC1(CCCC=CCCCCCC[C@@](C)(C(=O)N[C@@H](Cc3ccccc3)C(=O)N[C@@H](Cc3c[nH]c4ccccc34)C(=O)N[C@@H](CCC(N)=O)C(N)=O)NC(=O)[C@H](C(C)C)NC(=O)[C@H](Cc3ccccc3)NC(=O)[C@H](C)NC(=O)[C@H](C)NC(=O)[C@H](CC(=O)O)NC(=O)[C@H](C)NC1=O)NC(=O)[C@H](C)NC(=O)[C@H](CC(=O)O)NC2=O (stereo partly drawn) [I-351, Ac-PL3-Asp-Ala-B5-Ala-Asp-Ala-Ala-Phe-Val-S8-Phe-Trp-Gln-NH2] | 2.944 | 50 (≈ 86.9 µg/mL) | – | – |
| CC(=O)N1CCC[C@]12CC=CCCCC1(CCCC=CCCCCCC[C@@](C)(C(=O)N[C@@H](C)C(=O)N[C@@H](Cc3c[nH]c4ccccc34)C(=O)N[C@@H](CCC(N)=O)C(N)=O)NC(=O)[C@H](C(C)C)NC(=O)[C@H](Cc3ccccc3)NC(=O)[C@H](C)NC(=O)[C@H](C)NC(=O)[C@H](CC(=O)O)NC(=O)[C@H](CC(=O)O)NC1=O)NC(=O)[C@H](C)NC(=O)[C@H](CC(=O)O)NC2=O (stereo partly drawn) [I-355, Ac-PL3-Asp-Ala-B5-Asp-Asp-Ala-Ala-Phe-Val-S8-Ala-Trp-Gln-NH2] | 1.606 | 49 (≈ 83.5 µg/mL) | – | – |
| CC(=O)N1CCC[C@]12CC=CCCCC1(CCCC=CCCCCCC[C@@](C)(C(=O)N[C@@H](Cc3ccccc3)C(=O)N[C@@H](C)C(=O)N[C@@H](CCC(N)=O)C(N)=O)NC(=O)[C@H](C(C)C)NC(=O)[C@H](Cc3ccccc3)NC(=O)[C@H](C)NC(=O)[C@H](C)NC(=O)[C@H](CC(=O)O)NC(=O)[C@H](CC(=O)O)NC1=O)NC(=O)[C@H](C)NC(=O)[C@H](CC(=O)O)NC2=O (stereo partly drawn) [I-358, Ac-PL3-Asp-Ala-B5-Asp-Asp-Ala-Ala-Phe-Val-S8-Phe-Ala-Gln-NH2] | 1.882 | 50 (≈ 83.3 µg/mL) | – | – |
